Experimental data: ChEMBL document CHEMBL5523759, “Discovery of Novel HDAC3 Inhibitors with PD-L1 Downregulating/Degrading and Antitumor Immune Effects” (J Med Chem, 2024)
One block for each molecule: values may come before it.

Tests used:
Jurkat = experiment: Antiproliferative activity against human Jurkat T cells assessed as reduction in cell viability measured for 48 hrs by CCK-8 assay; assay type: functional, cell-based
Histone deacetylase 1 = Histone deacetylase 1 (Homo sapiens, UniProt Q13547); experiment: Inhibition of human recombinant HDAC1 using Ac-Leu-Gly-Lys (Ac)-AMC as substrate preincubated with compound for 10 mins followed by substrate addition and measured after 45 mins by TECAN microtiter plate reader analysis
Histone deacetylase 1, sequence (Q13547 whole entry): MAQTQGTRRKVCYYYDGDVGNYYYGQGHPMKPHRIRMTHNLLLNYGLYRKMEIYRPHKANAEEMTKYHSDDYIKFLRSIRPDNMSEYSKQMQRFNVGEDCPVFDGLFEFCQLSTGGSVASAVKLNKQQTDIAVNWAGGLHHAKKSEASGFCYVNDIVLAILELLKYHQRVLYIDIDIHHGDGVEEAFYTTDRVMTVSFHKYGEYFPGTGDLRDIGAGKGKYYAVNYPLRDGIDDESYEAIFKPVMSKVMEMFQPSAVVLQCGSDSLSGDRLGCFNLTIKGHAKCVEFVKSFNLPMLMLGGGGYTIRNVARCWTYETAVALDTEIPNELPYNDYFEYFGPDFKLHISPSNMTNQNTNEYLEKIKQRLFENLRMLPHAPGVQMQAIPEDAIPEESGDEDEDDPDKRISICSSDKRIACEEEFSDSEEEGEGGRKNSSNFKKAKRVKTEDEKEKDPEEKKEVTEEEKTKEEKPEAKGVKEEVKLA

HepG2 = experiment: Antiproliferative activity against human HepG2 cells assessed as reduction in cell viability measured for 48 hrs by MTT assay; assay type: functional, cell-based; details: HepG2, 48 h
B16-F10 = experiment: Antiproliferative activity against mouse B16-F10 cells assessed as reduction in cell viability measured for 48 hrs by MTT assay; assay type: functional, cell-based; details: B16-F10, 48 h
Histone deacetylase 8 = target: T1, Histone deacetylase 8 (Homo sapiens, UniProt Q9BY41); experiment: Inhibition of human recombinant HDAC8 using Ac-Leu-Gly-Lys (Tfa)-AMC as substrate preincubated with compound for 10 mins followed by substrate addition and measured after 45 mins by TECAN microtiter plate reader analysis
T1 sequence (Q9BY41 whole entry): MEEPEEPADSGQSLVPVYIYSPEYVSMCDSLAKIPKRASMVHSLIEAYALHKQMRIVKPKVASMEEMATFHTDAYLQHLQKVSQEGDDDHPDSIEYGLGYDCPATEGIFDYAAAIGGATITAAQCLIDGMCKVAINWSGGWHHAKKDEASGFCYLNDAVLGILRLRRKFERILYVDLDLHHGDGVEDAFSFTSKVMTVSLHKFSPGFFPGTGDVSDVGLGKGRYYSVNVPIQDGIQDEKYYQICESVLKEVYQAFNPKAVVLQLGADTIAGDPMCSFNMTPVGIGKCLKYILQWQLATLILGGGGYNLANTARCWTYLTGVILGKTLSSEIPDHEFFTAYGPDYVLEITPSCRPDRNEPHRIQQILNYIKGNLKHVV

MCF7 = experiment: cells; details: Homo sapiens, MCF7, 48 h
Description: Antiproliferative activity against human MCF7 cells assessed as reduction in cell viability measured for 48 hrs by MTT assay

HCT-116 = experiment: cells; details: Homo sapiens, HCT-116, 48 h
Description: Antiproliferative activity against human HCT-116 cells assessed as reduction in cell viability measured for 48 hrs by MTT assay

[1] = target: T2, Protein deacetylase HDAC6 (Homo sapiens, UniProt Q9UBN7); experiment: Inhibition of human recombinant HDAC6 using Ac-Leu-Gly-Lys (Ac)-AMC as substrate preincubated with compound for 10 mins followed by substrate addition and measured after 45 mins by TECAN microtiter plate reader analysis
T2 sequence (Q9UBN7 whole entry): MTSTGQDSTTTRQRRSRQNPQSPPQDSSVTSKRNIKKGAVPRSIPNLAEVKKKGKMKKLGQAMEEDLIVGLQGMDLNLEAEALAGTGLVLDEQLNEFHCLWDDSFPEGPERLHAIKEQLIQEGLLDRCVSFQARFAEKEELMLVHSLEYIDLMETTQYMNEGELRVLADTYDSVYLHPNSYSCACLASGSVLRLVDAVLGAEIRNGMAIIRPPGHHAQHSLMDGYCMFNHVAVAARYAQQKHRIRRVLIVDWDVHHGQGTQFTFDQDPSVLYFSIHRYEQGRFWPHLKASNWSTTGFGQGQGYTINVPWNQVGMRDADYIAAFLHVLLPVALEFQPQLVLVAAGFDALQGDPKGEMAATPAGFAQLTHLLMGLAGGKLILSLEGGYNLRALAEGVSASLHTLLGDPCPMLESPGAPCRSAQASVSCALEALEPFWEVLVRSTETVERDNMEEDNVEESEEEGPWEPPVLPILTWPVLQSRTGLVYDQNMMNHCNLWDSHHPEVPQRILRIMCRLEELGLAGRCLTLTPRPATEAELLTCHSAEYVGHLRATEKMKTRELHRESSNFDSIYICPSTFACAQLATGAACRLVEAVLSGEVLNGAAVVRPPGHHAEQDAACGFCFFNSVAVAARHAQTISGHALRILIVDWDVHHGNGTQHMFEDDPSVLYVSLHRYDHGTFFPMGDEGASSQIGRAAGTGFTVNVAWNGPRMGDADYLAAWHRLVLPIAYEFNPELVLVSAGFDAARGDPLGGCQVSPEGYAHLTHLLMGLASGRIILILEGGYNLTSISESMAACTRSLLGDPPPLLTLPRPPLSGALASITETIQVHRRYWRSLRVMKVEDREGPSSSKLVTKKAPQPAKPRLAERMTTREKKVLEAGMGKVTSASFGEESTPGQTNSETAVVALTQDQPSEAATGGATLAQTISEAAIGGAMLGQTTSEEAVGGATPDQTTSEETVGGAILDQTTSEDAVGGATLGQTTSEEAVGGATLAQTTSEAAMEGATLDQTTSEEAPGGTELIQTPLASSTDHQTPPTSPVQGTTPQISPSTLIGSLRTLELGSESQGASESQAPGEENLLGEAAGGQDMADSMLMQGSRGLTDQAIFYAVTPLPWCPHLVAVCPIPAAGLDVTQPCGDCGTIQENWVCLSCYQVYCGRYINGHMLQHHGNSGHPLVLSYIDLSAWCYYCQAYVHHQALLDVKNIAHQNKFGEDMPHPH

Histone deacetylase 7 = target: T3, Histone deacetylase 7 (Homo sapiens, UniProt Q8WUI4); experiment: Inhibition of human recombinant HDAC7 using Ac-Leu-Gly-Lys (Tfa)-AMC as substrate preincubated with compound for 10 mins followed by substrate addition and measured after 45 mins by TECAN microtiter plate reader analysis
T3 sequence (Q8WUI4 whole entry): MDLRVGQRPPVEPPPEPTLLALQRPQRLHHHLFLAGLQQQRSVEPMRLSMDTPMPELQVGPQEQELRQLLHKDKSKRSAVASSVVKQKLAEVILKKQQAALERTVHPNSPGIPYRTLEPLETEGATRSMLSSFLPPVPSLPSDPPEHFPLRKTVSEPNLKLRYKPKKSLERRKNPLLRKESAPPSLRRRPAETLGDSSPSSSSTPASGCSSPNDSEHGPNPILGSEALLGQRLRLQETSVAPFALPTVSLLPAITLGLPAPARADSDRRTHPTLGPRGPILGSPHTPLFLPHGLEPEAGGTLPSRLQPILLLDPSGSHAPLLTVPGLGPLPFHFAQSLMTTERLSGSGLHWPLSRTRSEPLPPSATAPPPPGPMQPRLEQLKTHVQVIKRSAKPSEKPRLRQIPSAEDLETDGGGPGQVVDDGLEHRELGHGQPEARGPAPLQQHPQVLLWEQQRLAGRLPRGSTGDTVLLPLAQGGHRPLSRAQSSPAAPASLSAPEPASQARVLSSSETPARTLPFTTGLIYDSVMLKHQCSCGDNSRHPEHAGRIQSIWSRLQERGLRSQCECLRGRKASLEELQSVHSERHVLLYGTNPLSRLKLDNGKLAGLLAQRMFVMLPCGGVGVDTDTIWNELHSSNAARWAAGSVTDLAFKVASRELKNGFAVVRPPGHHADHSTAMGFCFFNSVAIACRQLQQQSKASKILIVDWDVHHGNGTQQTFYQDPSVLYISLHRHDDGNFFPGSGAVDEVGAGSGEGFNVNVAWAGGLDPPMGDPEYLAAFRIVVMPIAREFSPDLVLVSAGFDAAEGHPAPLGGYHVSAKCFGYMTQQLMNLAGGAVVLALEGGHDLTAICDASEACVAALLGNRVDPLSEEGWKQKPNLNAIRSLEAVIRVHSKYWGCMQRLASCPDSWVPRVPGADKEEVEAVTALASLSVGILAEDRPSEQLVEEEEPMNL

Histone deacetylase 3 = Histone deacetylase 3 (Homo sapiens, UniProt O15379); experiment: Inhibition of human recombinant HDAC3 using Ac-Leu-Gly-Lys (Ac)-AMC as substrate preincubated with compound for 10 mins followed by substrate addition and measured after 45 mins by TECAN microtiter plate reader analysis
Histone deacetylase 3, sequence (O15379 whole entry): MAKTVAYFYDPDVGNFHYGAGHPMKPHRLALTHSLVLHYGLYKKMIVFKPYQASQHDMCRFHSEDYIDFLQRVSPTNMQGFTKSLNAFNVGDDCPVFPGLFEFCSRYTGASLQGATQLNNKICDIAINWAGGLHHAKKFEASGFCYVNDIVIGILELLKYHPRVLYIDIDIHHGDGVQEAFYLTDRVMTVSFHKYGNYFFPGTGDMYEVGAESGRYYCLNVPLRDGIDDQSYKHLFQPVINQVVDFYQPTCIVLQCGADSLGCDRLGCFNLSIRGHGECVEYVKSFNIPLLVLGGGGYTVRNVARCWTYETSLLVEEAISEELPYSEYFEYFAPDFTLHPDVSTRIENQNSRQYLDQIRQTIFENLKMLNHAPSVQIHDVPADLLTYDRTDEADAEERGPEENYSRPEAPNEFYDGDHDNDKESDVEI

IC50 (Jurkat): 560 nM
SMILES: Nc1ccccc1NC(=O)CCCNC(=O)c1ncc(CNc2ccccc2)s1

IC50 (Jurkat): > 10000 nM
SMILES: CCCNNC(=O)CCCCCNC(=O)c1ncc(CNc2ccccc2)s1

IC50 (Histone deacetylase 1): 230 nM
IC50 (HepG2): 510 nM
IC50 (B16-F10): 3220 nM
IC50 (Jurkat): 240 nM
IC50 (Histone deacetylase 8): > 10000 nM
IC50 (MCF7): > 10000 nM
IC50 (HCT-116): 1590 nM
IC50 [1]: > 10000 nM
IC50 (Histone deacetylase 7): > 10000 nM
SMILES: Nc1ccccc1NC(=O)c1ccc(CNC(=O)c2ncc(CNc3ccccc3)s2)cc1

IC50 (Jurkat): 1180 nM
SMILES: CCCNNC(=O)CCCCNC(=O)c1ncc(CNc2ccccc2)s1

IC50 (Histone deacetylase 1): 640 nM
IC50 (HepG2): > 10000 nM
IC50 (B16-F10): 1600 nM
IC50 (Jurkat): 70 nM
IC50 (Histone deacetylase 8): > 10000 nM
IC50 (MCF7): 3190 nM
IC50 (HCT-116): 1050 nM
IC50 (Histone deacetylase 3): 94 nM
IC50 [1]: 9100 nM
IC50 (Histone deacetylase 7): > 10000 nM
SMILES: Nc1ccccc1NC(=O)c1ccc(NC(=O)c2ccc(-c3ncc(CNc4ccccc4)s3)cc2)cc1

IC50 (Histone deacetylase 1): 390 nM
IC50 (HepG2): 370 nM
IC50 (B16-F10): 2980 nM
IC50 (Jurkat): 80 nM
IC50 (Histone deacetylase 8): > 10000 nM
IC50 (MCF7): 4240 nM
IC50 (HCT-116): 920 nM
IC50 (Histone deacetylase 3): 140 nM
IC50 [1]: 8310 nM
IC50 (Histone deacetylase 7): > 10000 nM
SMILES: Nc1ccccc1NC(=O)c1ccc(CNC(=O)c2ccc(-c3ncc(CNc4ccccc4)s3)cc2)cc1

IC50 (Jurkat): > 10000 nM
SMILES: Nc1ccccc1NC(=O)CCC(=O)Nc1ccc(-c2ncc(CNc3ccccc3)s2)cc1

IC50 (Jurkat): 550 nM
SMILES: CCCNNC(=O)c1ccc(NC(=O)c2ncc(CNc3ccccc3)s2)cc1

IC50 (Jurkat): 450 nM
SMILES: Nc1ccccc1NC(=O)CCCCCCNC(=O)c1ncc(CNc2ccccc2)s1

IC50 (Histone deacetylase 1): 340 nM
IC50 (HepG2): 1590 nM
IC50 (B16-F10): 7200 nM
IC50 (Jurkat): 170 nM
IC50 (Histone deacetylase 8): > 10000 nM
IC50 (MCF7): 7880 nM
IC50 (HCT-116): 6580 nM
IC50 (Histone deacetylase 3): 150 nM
IC50 [1]: 7720 nM
IC50 (Histone deacetylase 7): > 10000 nM
SMILES: Nc1ccccc1NC(=O)CCCCCC(=O)Nc1ccc(-c2ncc(CNc3ccccc3)s2)cc1

IC50 (Jurkat): 390 nM
SMILES: Nc1ccccc1NC(=O)/C=C/c1ccc(CNC(=O)c2ncc(CNc3ccccc3)s2)cc1

IC50 (Jurkat): 5150 nM
SMILES: Nc1ccccc1NC(=O)CCNC(=O)c1ncc(CNc2ccccc2)s1

IC50 (Jurkat): 4770 nM
SMILES: CCCNNC(=O)CCNC(=O)c1ncc(CNc2ccccc2)s1

IC50 (Jurkat): 2520 nM
SMILES: Nc1ccccc1NC(=O)c1ccc(NC(=O)c2ncc(CNc3ccccc3)s2)cc1

IC50 (Jurkat): > 1220 nM
SMILES: Nc1ccccc1NC(=O)CC(=O)Nc1ccc(-c2ncc(CNc3ccccc3)s2)cc1
